One compound from paper PMC4682813, “The Aminosteroid Derivative RM-133 Shows In Vitro and In Vivo Antitumor Activity in Human Ovarian and Pancreatic Cancers” (PLoS ONE, 2015) can be followed below.

In data set [1] the test system is OVCAR-3 tumors xenografted in nu/nu nude mice. Put plainly: OVCAR-3 xenografts in nude mice, propylene glycol-based vehicle (first part). The class given is in vivo. Particulars: 60 mg/kg s.c. daily, propylene glycol:EtOH (92:8). An excerpt: (§1) All in vivo experiments were approved by our Institutional Animal Care and Use Committee (Comités de protection des animaux de l’Université Laval) and carried out according to the guidelines of the Canadian Council on Animal Care. For xenografts, homozygous ♀ nu/nu nude mice (24–42 days old) were purchased from Charles River Inc. (Saint-Constant, QC, Canada) and housed (four to five) in vinyl micro-isolated ventilated cages, equipped with air lids, which were kept in laminar airflow hoods and maintained under pathogen-limiting conditions. During the acclimatization and study period, the animals were housed under a controlled environment at 22 ± 3°C, with 50 ± 20% relative humidity and light set at 12 h/day (light on at 07:15). Rodent food (Rodent diet #T.2018.15, Harlan Teklad, Madison, WI) and water were provided ad libitum. For nu/nu nude mice, food and water were sterilized prior to dispensing to the animals. Standard Balb/c mice were used for pharmacokinetic studies. Animals were anesthetized with isoflurane and killed by cervical dislocation.
Twenty-two ♀ nu/nu nude mice (22–24 g) were inoculated s.c. with 5×10^6 OVCAR-3 cells (in 0.1 mL of growth medium containing 30% Matrigel (BD Biosciences, Bedford, MA)) into both flanks in each mouse via a 2.5-cm long 22-gauge needle. After 11 days, tumor-bearing mice were randomly assigned to two groups of 11 mice each according to tumor size, i.e. a control group (n = 12 tumors) and a treated group (n = 15 tumors). RM-133 was administered s.c. daily at 60 mg/kg in 0.1 mL of propylene glycol:EtOH (92:8). Animals in the control group received 0.1 mL of vehicle alone. Tumor size was measured twice weekly using a caliper. Two perpendicular diameters (L and W) were measured, and the tumor area (in mm^2) was calculated using the formula (L/2) x (W/2) x π. Animals were weighed at various intervals during the experiment.

The nature of data set [2]: RM-133 plasma and tumor concentration in nude mice after the xenograft experiment (second part), LC-MS/MS. Format: in vivo, nu/nu nude mice. Particulars: for concentration at 12 h: 12 h after single s.c. 60 mg/kg (0.1 mL). The procedure: At the end of the xenograft experiment, and in order to obtain preliminary pharmacological data, mice in treated groups were separated into 4 subgroups of 2–3 mice each, injected s.c. with RM-133 (60 mg/kg) and sacrificed after 3, 7, 12, or 24 h. In parallel, mice in the control group were also separated into 4 subgroups, treated with RM-133 (60 mg/kg) as for treated mice, and sacrificed at the same intervals. Blood was collected from mice by cardiac puncture, and the plasma concentration of RM-133 determined by liquid chromatography–tandem mass spectrometry (LC-MS/MS) as previously reported. Tumors of the mice in the treated group were collected at necropsy, pooled, homogenized according to a known procedure and the quantity of RM-133 was determined by LC-MS/MS.

A short description of data set [3]: Solubility of RM-133 in injection vehicles. The class given is physicochemical. Particulars: vehicle #5 sunflower oil:tetrahydrofuran (92:8). An excerpt:
Eleven different vehicles were investigated by s.c. injection. These vehicles were formulated as follows: vehicle #1 [propylene glycol:EtOH (92:8)]; vehicle #2 [aqueous 0.4% methylcellulose:EtOH (92:8)]; vehicle #3 [castor oil:EtOH:benzyl alcohol:benzyl benzoate (65:10:10:15)]; vehicle #4 [sunflower oil:EtOH (92:8)]; vehicle #5 [sunflower oil:tetrahydrofuran (92:8)]; vehicle #6 [aqueous 25% β-cyclodextrin:EtOH (92:8)]; vehicle #7 [sesame oil:EtOH:benzyl benzoate:benzyl alcohol:Tween 80 (89.8:7.8:1:1:0.5)]; vehicle #8 [soya oil:EtOH (92:8)]; vehicle #9 [RPMI medium:EtOH (92:8)]; vehicle #10 [saline:dimethyl sulfoxide (DMSO):Tween 80 (89.5:10:0.5)]; and vehicle #11 [saline:benzyl alcohol:carboxymethylcellulose:Tween 80 (98.2:0.9:0.5:0.4)]. The eight vehicles producing the best RM-133 solubility (#1–8) were injected s.c. (0.1 mL) without the test compound (RM-133) for tolerance and behavioral evaluation studies, by observing mice at 0.25, 1, 3, 7, 23, 26, 28, 30, and 96 h post-injection. Finally, RM-133 was injected s.c. once at 120 mg/kg/0.1 mL of the best […] tolerated vehicles (#1,2,4–7) into ♀ Balb/c mice (4 per group), and mice were next monitored with blood collection by cardiac puncture after 3 and 12 h. The plasma concentration of RM-133 was then determined by LC-MS/MS as above.

The subject of data set [4] is PANC-1 tumors xenografted in nu/nu nude mice. Put plainly: PANC-1 xenografts in nude mice. Format: in vivo. Particulars: aqueous 0.4% methylcellulose:EtOH (92:8), 240 mg/kg s.c. twice a day every other day.
From the text: as §1
Twenty female nu/nu nude mice (22–24 g) were inoculated with 5×10^6 PANC-1 cells per flank, in 30% matrigel-containing culture medium (0.1 mL). Ten days after inoculation, tumor-bearing mice were randomized in 2 groups of 10 mice each. […] Mice in the second (control) group (n = 18 tumors) received the vehicle only. As with previous xenografts, the tumor area was measured and mouse body weight monitored.

The nature of data set [5]: Plasma concentration of RM-133 in mice at different injection doses. Format: in vivo, Balb/c mice. The procedure: Eight ♀ Balb/c mice weighing approximately 20 g were separated in 4 groups. Mice in each group received a single s.c. injection of RM-133 (30, 60, 120, or 480 mg/kg). The vehicle used was propylene glycol:EtOH (92:8) and injection volume was 0.1 mL for all concentrations except at 480 mg/kg, where 0.2 mL was used. Blood was collected by cardiac puncture after 12 h, and the plasma concentration of RM-133 determined by LC-MS/MS as above.

Several values for one entry are separate records, joined by “and”; a condition that tells them apart may be missing. Equal entries are not always repeated.

On to `C#C[C@]1(O)CC[C@H]2[C@@H]3CC[C@H]4C[C@H](O)[C@@H](N5CCN(C(=O)[C@@H]6CCCN6C(=O)c6ccc7ccccc7n6)CC5)C[C@]4(C)[C@H]3CC[C@@]21C` [RM-133], for which, in data set [1] (21-day treatment), the “effect on body weight” value is recorded as “no apparent effect on body weight”. The “day from which treated tumors were significantly smaller than control” value in data set [1] is 15 days. The “difference in tumor size between treated and control groups (tumor growth inhibition)” value in data set [1] (end of treatment (21 days)) turned out to be 60%. Moreover, the accumulation in blood entry in data set [2] (21 days-xenograft experiment, 60 mg/kg daily s.c.) is “does not accumulate in blood”. Further, the “concentration inside the tumor” value in data set [2] (OVCAR-3 tumors of treated mice collected at necropsy, pooled) is 1.2 μM and 773 ng/g. Moreover, the concentration at 12 h in data set [2] (nu/nu nude, mouse, plasma, sc, 60 mg/kg, group A: previously treated daily for 21 days) is 178 ng/mL; in data set [2] (nu/nu nude, mouse, plasma, sc, 60 mg/kg, group B: not previously exposed to the drug) it was 91 ng/mL; in data set [5] (female, mouse, plasma, sc, 12 h after single s.c. 30 mg/kg, propylene glycol:EtOH (92:8), Balb/c mice), 167 ng/mL. In addition, the concentration at 24 h in data set [2] (nu/nu nude, mouse, plasma, sc, 60 mg/kg, single s.c. 60 mg/kg in 0.1 mL propylene glycol:EtOH (92:8), 24 h, nude mice) came to 81 ng/mL. Further, the “maximum average plasma concentration” value in data set [2] (single s.c. 60 mg/kg in 0.1 mL propylene glycol:EtOH (92:8), 3 h, nude mice) is 460 ng/mL. In addition, the solubility in vehicle entry in data set [3] was “poorly soluble”. Further, in data set [4], the “apparent toxicity during the experimental period or at necropsy” value is listed as “no apparent toxicity”. In addition, the body weight entry in data set [4] was “not affected”. The “reduction of PANC-1 tumor size progression” value in data set [4] (day 22) came to 75%. In data set [4] (end of treatment (40 days)), the “reduction of PANC-1 tumor progression” value was determined as 63%. Moreover, the tolerance result in data set [5] (480 mg/kg s.c. in 0.2 mL propylene glycol:EtOH (92:8), motion discomfort, same with vehicle alone) is on record as “not tolerated”. For the same compound, the “plasma concentration as percentage of the injected amount” value in data set [5] (12 h after single s.c. 30 mg/kg, propylene glycol:EtOH (92:8)) stood at 17%.
